These results are taken from ChEMBL document CHEMBL5154892, “Structure-Based Optimization and Characterization of Macrocyclic Zika Virus NS2B-NS3 Protease Inhibitors” (J Med Chem, 2022).

Each structure is given as a SMILES string. pKi: −log10 of the molar value. Activity calls are given as the source filed them. The calls are words filed in the database; no cut-off is given here. *1 amine or outer side, *2 acyl side, *3 side chain or, on linkers, in order; H or OH if unused. Where a SMILES comes first, the peptide text is derived from it. [ ]: non-standard residue; d: D form. X2 = N=C(N)N[C@H](CCOCN[*:1])C(=O)[*:2]; X3 = O=C([C@@H](CN[*:1])Cc1ccccc1)[*:2]; X1 = O=C([C@H](CN[*:1])Cc1ccccc1)[*:2]; NMeβAla = CN(CCC(=O)[*:2])[*:1]; βAla = NCCC(=O)O; Sar = CNCC(=O)O

One data set concerns the target Prothrombin (Bos taurus) (UniProt P00735). The experiment in a line: Inhibition of bovine thrombin at 100 uM using Tos-Gly-Pro-Arg-AMC as substrate by fluorescence plate reader analysis.
The nature of data set [1]: Binding affinity to Zika virus NS2B-NS3 protease using Phac-Leu-Lys-Lys-Arg-AMC as substrate measured immediately upto 10 mins by fluorogenic assay.
Data set [2] can be described thus: Binding affinity to West Nile virus NSB2 (52 to 96 amino acids)-NS3 (1 to 184 amino acids) protease using Phac-Leu-Lys-Lys-Arg-AMC as substrate measured immediately upto 10 mins by fluorogenic assay.
Another data set addresses Trypsin (Sus scrofa) (UniProt P00761). Put plainly: Inhibition of porcine trypsin at 100 uM using Mes-D-Arg-Gly-Arg-AMC a substrate by fluorescence plate reader analysis.
Data set [3] deals with A549. The experiment in a line: Cytotoxicity against human A549 cells assessed as cell viability upto 80 uM and measured after 24 to 48 hrs by PrestoBlue dye based microplate reader analysis. The format is toxicity. To be noted: a549, 80 µM, time 24-48 hrs.
The test system of data set [4] is Zika virus. Put plainly: Antiviral activity against Zika virus infected in human A549 cells assessed as reduction in luciferase activity at 20 uM measured up to 48 hrs post infection by luciferase assay. The format is functional, organism-based.
In data set [5] the test system is Zika virus. Put plainly: Antiviral activity against ZIKV H/PF/2013 infected in human A549 cells assessed as reduction in extracellular virus titer in cell supernatant at 80 uM measured after 24 hrs post infection by plaque assay based crystal violet staining analysis. The format is functional, organism-based.
Data set [6] relates to A549. Put plainly: Cytotoxicity against human A549 cells assessed as cell viability at 2.5 to 160 uM measured after 24 to 48 hrs by PrestoBlue dye based microplate reader analysis. The format is toxicity. To be noted: a549, 160 µM, dose lower 2.5 µM, time lower 24 hrs, dose upper 160 µM, time upper 48 hrs.
For data set [7], the system named is Zika virus. The experiment in a line: Antiviral activity against ZIKV H/PF/2013 infected in human A549 cells assessed as reduction in number of infected cells at 80 uM measured after 24 hrs post infection by immunofluorescence microscopic analysis relative to control. The format is functional, organism-based.
For data set [8], the system named is Zika virus. The experiment in a line: Antiviral activity against ZIKV H/PF/2013 infected in human A549 cells assessed as reduction in extracellular virus titer in cell supernatant at 80 uM measured after 48 hrs post infection by plaque assay based crystal violet staining analysis. The format is functional, organism-based.
The test system of data set [9] is Zika virus. The experiment in a line: Antiviral activity against ZIKV H/PF/2013 infected in human A549 cells assessed as reduction in intracellular virus titer at 80 uM measured after 48 hrs post infection by plaque assay based crystal violet staining analysis. The format is functional, organism-based.

Chain of Trypsin (Sus scrofa) (P00761 whole entry): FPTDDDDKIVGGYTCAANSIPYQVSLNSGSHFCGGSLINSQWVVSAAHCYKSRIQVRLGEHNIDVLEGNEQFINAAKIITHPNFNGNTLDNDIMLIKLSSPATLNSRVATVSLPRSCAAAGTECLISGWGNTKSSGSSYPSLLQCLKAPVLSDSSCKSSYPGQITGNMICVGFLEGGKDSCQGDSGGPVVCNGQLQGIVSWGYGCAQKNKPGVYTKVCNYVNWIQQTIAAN

A word on the inhibition: it is the relative decrease from the control value, in per cent. Higher therefore signals a response far below the control. The pKi is the negative decadic logarithm of the Ki, by convention in mol/L. A low value points to a large Ki. Take `N=C(N)N[C@@H]1CCOCNC(=O)[C@H](CCCCN)NC(=O)[C@H](CCCCN)NC(=O)[C@@H](c2ccccc2)NC(=O)CCNC(=O)CNC1=O`: the inhibition against Prothrombin (Bos taurus) turned out to be 55%; at Trypsin (Sus scrofa), 33%. In addition, the results for the pKi in data set [1] and in [2] were 8.32 and 6.43, respectively.

`N=C(N)N[C@@H]1CCOCNC(=O)[C@H](CCCCN)NC(=O)[C@H](CCCCN)NC(=O)[C@@H](Cc2ccccc2)NC(=O)CNC(=O)CNC1=O` (racemic): the pKi was 6.86 in data set [1] and 4.76 in [2].

Take `N=C(N)N[C@@H]1CCOCNC(=O)[C@H](CCCCN)NC(=O)[C@H](CCCCN)NC(=O)Cc2cccc(c2)CNC(=O)[C@@H](CC2CCCCC2)NC1=O`: the inhibition at Prothrombin (Bos taurus) was less than 30%; against Trypsin (Sus scrofa), less than 10%. Moreover, the pKi in data set [1] was 8.44; in [2], 6.40.

As for `CC(C)C[C@H]1NC(=O)[C@H](NC(=N)N)CCOCNC(=O)[C@H](CCCCN)NC(=O)[C@H](CCCCN)NC(=O)Cc2cccc(c2)CNC1=O`, the inhibition is less than 30% on Prothrombin (Bos taurus) and less than 10% at Trypsin (Sus scrofa). The pKi was 8.02 in [1] and 6.56 in data set [2].

Consider `N=C(N)N[C@@H]1CCOCNC(=O)[C@H](CCCCN)NC(=O)[C@H](CCCCN)NC(=O)[C@@H](CC2CCCCC2)NC(=O)CCNC(=O)CNC1=O`, for which the values for the inhibition against Prothrombin (Bos taurus) and at Trypsin (Sus scrofa) were less than 30% and less than 10%, respectively. For the same molecule, the pKi is 8.16 in [1] and 6.13 in data set [2].

Turning to `N=C(N)N[C@@H]1CCOCNC(=O)[C@H](CCCCN)NC(=O)[C@H](CCCCN)NC(=O)CNC(=O)Cc2cccc(c2)CNC1=O`, the results for the pKi in data set [1] and in data set [2] were 7.39 and 5.75, respectively.

With `N=C(N)N[C@@H]1CCOCNC(=O)[C@H](CCCCN)NC(=O)[C@H](CCCCN)NC(=O)[C@H](Cc2ccccc2)CNC(=O)CNC(=O)CNC1=O` (cyclo(GG[X3]KK[X2])), the pKi is 7.07 in data set [1] and 5.19 in [2].

On to `C[C@H]1NC(=O)CNC(=O)CNC(=O)[C@H](NC(=N)N)CCOCNC(=O)[C@H](CCCCN)NC(=O)[C@H](CCCCN)NC1=O`, for which the pKi in [1] is 6.73; in [2], 5.16.

In the case of `CN1CCC(=O)N[C@@H](CCCCN)C(=O)N[C@@H](CCCCN)C(=O)NCOCC[C@@H](NC(=N)N)C(=O)NCC(=O)NCC1=O` (cyclo(GG[NMeβAla]KK[X2])), the pKi in [1] was 6.31; in data set [2], 4.43.

Regarding `CC(C)C[C@H]1NC(=O)CCNC(=O)CNC(=O)[C@H](NC(=N)N)CCOCNC(=O)[C@H](CCCCN)NC(=O)[C@H](CCCCN)NC1=O`, the pKi was 8.37 in data set [1] and 5.99 in [2].

`N=C(N)N[C@@H]1CCOCNC(=O)[C@H](CCCCN)NC(=O)[C@H](CCCCN)NC(=O)[C@@H](CCc2ccccc2)NC(=O)CCNC(=O)CNC1=O`: the pKi is 7.99 in [1] and 5.89 in [2].

For the molecule `N=C(N)N[C@@H]1CCOCNC(=O)[C@H](CCCCN)NC(=O)[C@H](CCCCN)NC(=O)[C@H]2CCCN2C(=O)CCNC(=O)CNC1=O`, the pKi in data set [1] was 7.68; in data set [2] it was 5.59.

Take `N=C(N)N[C@@H]1CCOCNC(=O)[C@H](CCCCN)NC(=O)[C@H](CCCCN)NC(=O)Cc2cccc(c2)CNC(=O)CNC1=O`: the Activity entry with A549 [3] is reported as “Non-Toxic”. Besides, the outcome in the data set on Zika virus [4] and with Zika virus [5] was Active. Moreover, the inhibition against Prothrombin (Bos taurus) is less than 30%; on Trypsin (Sus scrofa), less than 10%.

In the case of `N=C(N)N[C@@H]1CCOCNC(=O)[C@H](CCCCN)NC(=O)[C@H](CCCCN)NC(=O)Cc2cccc(c2)CNC(=O)[C@@H](CCc2ccccc2)NC1=O`, the pKi was 8.22 in [1] and 6.48 in [2].

In the case of `C[C@@H]1NC(=O)CNC(=O)CNC(=O)[C@H](NC(=N)N)CCOCNC(=O)[C@H](CCCCN)NC(=O)[C@H](CCCCN)NC1=O`, the pKi in data set [1] is 7.04; in data set [2], 5.93.

For `CC(C)C[C@@H]1NC(=O)CCNC(=O)CNC(=O)[C@H](NC(=N)N)CCOCNC(=O)[C@H](CCCCN)NC(=O)[C@H](CCCCN)NC1=O`, the pKi in [1] is 6.91; in data set [2], 4.99.

`N=C(N)N[C@@H]1CCOCNC(=O)[C@H](CCCCN)NC(=O)[C@H](CCCCN)NC(=O)[C@@H](Cc2ccccc2)NC(=O)CCNC(=O)CNC1=O.O=C(O)C(F)(F)F`: in the data set with Zika virus [4], the result was Active. In addition, the values for the inhibition against Prothrombin (Bos taurus) and at Trypsin (Sus scrofa) were less than 30% and less than 10%, respectively. Also, the pKi in data set [1] was 8.51; in data set [2] it was 5.72. Also, in the data set on A549 [6], the Activity entry was “Toxic”.

In the case of `N=C(N)N[C@@H]1CCOCNC(=O)[C@H](CCCCN)NC(=O)[C@H](CCCCN)NC(=O)CCNC(=O)Cc2cccc(c2)CNC1=O`, the negative logarithm of the Ki (pKi) in data set [1] was 7.09; in data set [2] it was 4.25.

In the case of `CC(C)[C@H]1NC(=O)CCNC(=O)CNC(=O)[C@H](NC(=N)N)CCOCNC(=O)[C@H](CCCCN)NC(=O)[C@H](CCCCN)NC1=O.O=C(O)C(F)(F)F`, the Activity result with A549 [3] is “Non-Toxic”. In addition, the pKi was 8.08 in data set [1] and 5.77 in data set [2].

Consider `N=C(N)N[C@@H]1CCOCNC(=O)[C@H](CCCCN)NC(=O)[C@H](CCCCN)NC(=O)[C@@H](Cc2ccccc2)CNC(=O)CNC(=O)CNC1=O` (cyclo(GG[X1]KK[X2])), for which the inhibition was less than 30% at Prothrombin (Bos taurus) and less than 10% on Trypsin (Sus scrofa). For the same molecule, the pKi in data set [1] is 7.20; in [2], 4.83.

For the molecule `C[C@H]1NC(=O)CCNC(=O)CNC(=O)[C@H](NC(=N)N)CCOCNC(=O)[C@H](CCCCN)NC(=O)[C@H](CCCCN)NC1=O`, the pKi was 8.25 in data set [1] and 5.84 in data set [2].

`N=C(N)N[C@@H]1CCOCNC(=O)[C@H](CCCCN)NC(=O)[C@H](CCCCN)NC(=O)Cc2cccc(c2)CNC(=O)[C@@H](Cc2ccccc2)NC1=O`: the figures for the pKi in [1] and in data set [2] were 8.27 and 6.16, respectively.

As to `N=C(N)N[C@@H]1CCOCNC(=O)[C@H](CCCCN)NC(=O)[C@H](CCCCN)NC(=O)[C@H](Cc2ccccc2)NC(=O)CNC(=O)CNC1=O`, the pKi in [1] was 7.50; in [2], 6.18.

With `N=C(N)N[C@@H]1CCOCNC(=O)[C@H](CCCCN)NC(=O)[C@H](CCCCN)NC(=O)CCNC(=O)CNC(=O)CNC1=O` (cyclo(GG[βAla]KK[X2])), the Activity entry in the data set on A549 [3] is “Non-Toxic”. Further, the result in the data set with Zika virus [4] was Active. Besides, the inhibition is less than 30% at Prothrombin (Bos taurus) and less than 10% at Trypsin (Sus scrofa).

For the molecule `CC(C)[C@H]1NC(=O)[C@H](NC(=N)N)CCOCNC(=O)[C@H](CCCCN)NC(=O)[C@H](CCCCN)NC(=O)Cc2cccc(c2)CNC1=O`, the pKi in [1] was 8.11; in [2] it was 6.36.

Take `CCCC[C@H]1NC(=O)CCNC(=O)CNC(=O)[C@H](NC(=N)N)CCOCNC(=O)[C@H](CCCCN)NC(=O)[C@H](CCCCN)NC1=O`: the pKi in data set [1] was 8.31; in data set [2] it was 6.05.

Regarding `C[C@@H]1NC(=O)CCNC(=O)CNC(=O)[C@H](NC(=N)N)CCOCNC(=O)[C@H](CCCCN)NC(=O)[C@H](CCCCN)NC1=O`, the figures for the pKi in data set [1] and in [2] were 7.12 and 5.11, respectively.

Consider `N=C(N)N[C@@H]1CCOCNC(=O)[C@H](CCCCN)NC(=O)[C@H](CCCCN)NC(=O)Cc2cccc(c2)CNC(=O)[C@@H](CCC2CCCCC2)NC1=O.O=C(O)C(F)(F)F`, for which the result with Zika virus [7], in the data set with Zika virus [4], in the data set on Zika virus [5], in the data set with Zika virus [8] and in the data set with Zika virus [9] was Active. In addition, the Activity result in the data set on A549 [3] is “Non-Toxic”. The inhibition against Prothrombin (Bos taurus) is less than 30%; against Trypsin (Sus scrofa), less than 10%. In addition, the negative logarithm of the Ki (pKi) in data set [1] is 8.63; in data set [2], 6.66.

In the case of `CC(C)[C@@H]1NC(=O)CCNC(=O)CNC(=O)[C@H](NC(=N)N)CCOCNC(=O)[C@H](CCCCN)NC(=O)[C@H](CCCCN)NC1=O`, the results for the pKi in [1] and in data set [2] were 6.47 and 4.40, respectively.

With `CN1CC(=O)NCCC(=O)N[C@@H](CCCCN)C(=O)N[C@@H](CCCCN)C(=O)NCOCC[C@@H](NC(=N)N)C(=O)NCC1=O` (cyclo(G[Sar][βAla]KK[X2])), the figures for the pKi in data set [1] and in data set [2] were 6.48 and 4.51, respectively.

Turning to `CN1CC(=O)NCC(=O)NCCC(=O)N[C@@H](CCCCN)C(=O)N[C@@H](CCCCN)C(=O)NCOCC[C@@H](NC(=N)N)C1=O` (cyclo(G[βAla]KK[X2][Sar])), the values for the pKi in data set [1] and in data set [2] were 6.48 and 4.52, respectively.
